We go through 46 compounds from patent EP4582413A1, “ARYLTETRAHYDROPYRIDINE COMPOUND AND PEST CONTROL AGENT” (priority 2022, dated 2024).

What all share (type): in vivo
Data set [1] relates to cat fleas (Ctenocephalides felis). The experiment in a line: whole plant or invertebrate. Particulars: 72 h, read-out: death rate. The method, boiled down: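 Glass containers (25 cm² inner surface) were coated with 250 µl of a 1000 ppm acetone solution, and the acetone was evaporated to leave a dry film. Five mixed-sex adult fleas were confined per container at 25°C. Mortality was scored after 3 days.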

Data set [2] concerns green peach aphids (Myzus persicae). The data set can be described thus: Insecticidal test for green peach aphids. Conditions: 500 ppm chemical solution sprinkled (2.5 mg/cm^2), wingless imagoes on leaf disc, six days, 25°C; for mortality at 500 µg/mL: Myzus persicae, foliar, 144 h, read-out: death rate; for death rate: 8640 min. On the procedure: Wet absorbent cotton was laid on each glass dish having an inner diameter of 3 cm, a Chinese olive leaf cut into a circle having a diameter of 3 cm was placed thereon, and four wingless green peach aphids (Myzus persicae) imagoes were released. After a day, a 10% by mass emulsion of the presently invented compound prepared according to the above formulation example for an emulsion was diluted with water containing a spreader to prepare a chemical solution having a concentration of 500 ppm. The chemical solution prepared was sprinkled (2.5 mg/cm^2) with a rotary tower sprinkler, and the dishes were capped and accommodated in a thermostatic room at 25°C. […] The test was carried out in duplicate.

The subject of data set [3] is diamondback moths (Plutella xylostella). The data set can be described thus: Insecticidal test for diamondback moths. Conditions: Plutella xylostella, 144 h; 500 ppm chemical solution, leaves soaked, third-instar larvae, six days, 25°C; read-out: death rate. The method, boiled down: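 Leaves dipped about 10 s in a 500 ppm aqueous dilution of an emulsion formulation with spreader, then air-dried. Five third-instar larvae released per dish and held at 25 °C. Tested in duplicate.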

The subject of data set [4] is western flower thrips (Frankliniella occidentalis). The experiment in a line: Insecticidal activity against western flower thrips. Particulars: Frankliniella occidentalis, 48 h; 500 ppm chemical solution sprinkled (2.5 mg/cm^2), larvae on common bean leaf, after 2 days; read-out: death rate. The method, boiled down: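 Bean leaf squares on wet filter paper inoculated with 20 larvae. Compound emulsion diluted with spreader-containing water to 500 ppm and sprayed at 2.5 mg/cm^2 by rotary tower. Run in duplicate.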

In a further data set the test system is Trichostrongylus axei. The experiment in a line: Effect test for Trichostrongylus axei. Conditions: test chemical solution B added to eggs in 96-well plate, unhatched eggs and inactive larvae counted 4 days after addition, 25°C, relative to untreated plot. Also on record: concentration or dose not given beside the values. On the procedure: Agar medium with 1% potato dextrose was aliquoted into 60-µl portions in a 96-well plate, and 30 µl of sterilized water containing Trichostrongylus axei eggs and a freeze-dried Escherichia coli OP50 strain (five eggs, 10 µg/10 µl Escherichia coli) was added to each well. From above, 10 µl of test chemical solution B of the presently invented compound was added to each well, and the plate was left to stand under dark conditions at 25°C.

For the compound `CC(=O)c1cccc(-c2cc(C3CC(O)=C(C(=O)Nc4ccc(F)cc4)C(=O)N3)ccc2C(F)(F)F)c1` (centres unmarked) [1-011], the mortality at 10 µg/cm2 in data set [1] is at least 50%. The mortality at 500 µg/mL in data set [2], in data set [3] and in data set [4] was at least 90% each time.
As to `CN(C)c1ccc(-c2noc(C3CC(O)=C(C(=O)Nc4ccc(F)cn4)C(=O)N3)n2)cc1` (centres unmarked) [3-118], the death rate in data set [2] is at least 90%.
`COc1cccc(-c2cc(C3CC(O)=C(C(=O)Nc4ccc(F)cc4)C(=O)N3)ccc2C(F)(F)F)c1` (centres unmarked) [1-017]: the mortality at 10 µg/cm2 in data set [1] is at least 50%. Also, the mortality at 500 µg/mL in data set [2], in data set [3] and in data set [4] was at least 90% each time.
Consider `CSc1ccc(-c2cc(C3CC(O)=C(C(=O)Nc4ccc(F)cc4)C(=O)N3)ccc2C(F)(F)F)cc1` (centres unmarked) [1-009], for which the mortality at 10 µg/cm2 in data set [1] is at least 50%. In addition, the mortality at 500 µg/mL in data set [2], in data set [3] and in data set [4] was at least 90% in each case.
With `CN(C)c1ccc(-c2noc(C3CC(O)=C(C(=O)Nc4ccc(F)cc4)C(=O)N3)n2)cc1` (centres unmarked) [3-117], the mortality at 500 µg/mL in data set [2] was at least 90%.
Take `Cc1cccc(-c2cc(C3CC(O)=C(C(=O)Nc4cccnc4Cl)C(=O)N3)cnc2Cl)c1` (centres unmarked) [2-274]: the mortality at 10 µg/cm2 in data set [1] was at least 50%. For the same compound, the mortality at 500 µg/mL in data set [2] and in data set [3] was at least 90% in each case.
For the compound `N#Cc1ccc(-c2cc(C3CC(O)=C(C(=O)Nc4ccc(F)cc4)C(=O)N3)ccc2C(F)(F)F)cc1` (centres unmarked) [1-023], the mortality at 10 µg/cm2 in data set [1] is at least 50%. Moreover, the mortality at 500 µg/mL in data set [2], in data set [3] and in data set [4] was at least 90% in each case.
The compound `Cc1cccc(-c2cc(C3CC(O)=C(C(=O)Nc4cccc(S(C)(=O)=O)c4)C(=O)N3)cnc2Cl)c1` (centres unmarked) [2-285] displayed a death rate in data set [2] of at least 90%.
On to `O=C(Nc1ccc(F)cc1)C1=C(O)CC(c2ccc(C(F)(F)F)c(-c3ccoc3)c2)NC1=O` (centres unmarked) [1-015], for which the mortality at 10 µg/cm2 in data set [1] was at least 50%. Moreover, the mortality at 500 µg/mL in data set [2], in data set [3] and in data set [4] was at least 90% in each case.
With `O=C(Nc1ccc(Cl)nn1)C1=C(O)CC(c2cnc(Cl)c(-c3ccc(Cl)nc3)c2)NC1=O` (centres unmarked) [2-046], the death rate in data set [2] is at least 90%.
For `O=C(Nc1ccc(F)cc1)C1=C(O)CC(c2ccc(C(F)(F)F)c(-c3ccccc3F)c2)NC1=O` (centres unmarked) [1-005], in data set [1], the mortality at 10 µg/cm2 was at least 50%. Also, the mortality at 500 µg/mL in data set [2], in data set [3] and in data set [4] was at least 90% in each case.
Take `CCCOc1ccc(-c2cncc(C3CC(O)=C(C(=O)Nc4ccc(F)cc4)C(=O)N3)c2)cn1` (centres unmarked) [2-007]: the death rate in data set [2] was at least 90%.
`Cc1ccc(NC(=O)C2=C(O)CC(c3nc(-c4ccnc(F)c4)no3)NC2=O)c(C)c1` (centres unmarked) [3-266] came in with a death rate in data set [2] of at least 90%.
Turning to `O=C(Nc1cccc(Cl)c1F)C1=C(O)CC(c2nc(-c3ccnc(F)c3)no2)NC1=O` (centres unmarked) [3-248], the mortality at 10 µg/cm2 in data set [1] is at least 50%. The mortality at 500 µg/mL in data set [2] and in data set [3] was at least 90% in each case.
On to `COc1ccccc1-c1cc(C2CC(O)=C(C(=O)Nc3ccc(F)cc3)C(=O)N2)ccc1C(F)(F)F` (centres unmarked) [1-016], for which the mortality at 10 µg/cm2 in data set [1] is at least 50%. Also, the mortality at 500 µg/mL in data set [2], in data set [3] and in data set [4] was at least 90% throughout.
Regarding `O=C(Nc1ccc(F)cc1)C1=C(O)CC(c2nc(-c3ccsc3)no2)NC1=O` (centres unmarked) [3-109], the mortality at 10 µg/cm2 in data set [1] was at least 50%. Moreover, the mortality at 500 µg/mL in data set [2], in data set [3] and in data set [4] was at least 90% in each case.
Consider `Cc1ccc(NC(=O)C2=C(O)CC(c3nc(-c4ncccn4)no3)NC2=O)nc1` (centres unmarked) [3-167], for which the death rate in data set [2] is reported as at least 90%.
`COC(=O)c1ccc(NC(=O)C2=C(O)CC(c3cnc(Cl)c(-c4ccc(F)cc4)c3)NC2=O)cc1` (centres unmarked) [2-292]: the mortality at 500 µg/mL in data set [2] was at least 90%.
On the same count and under the same terms, under `O=C(Nc1ccc(F)cc1)C1=C(O)CC(c2cncc(-c3cccc(C(F)(F)F)c3)c2)NC1=O` (centres unmarked) [2-003] stands at least 90%.
For the compound `O=C(Nc1ncc(Cl)cc1F)C1=C(O)CC(c2cnc(C(F)(F)F)c(-c3ccc(F)nc3)c2)NC1=O` (centres unmarked) [2-181], in the data set on Trichostrongylus axei, the “efficacy (%)” value was at least 50%.
For the compound `O=C(Nc1ccc(F)cn1)C1=C(O)CC(c2nc(-c3cc(F)c(F)cc3F)no2)NC1=O` (centres unmarked) [3-139], in the data set on Trichostrongylus axei, the “efficacy (%)” value was at least 50%.
The same measure, in the same setting: under `O=C(Nc1ccc(F)cn1)C1=C(O)CC(c2nc(-c3ncc(C(F)(F)F)cc3Cl)no2)NC1=O` (centres unmarked) [3-148] stands at least 50%; under `O=C(Nc1ccc(C(F)(F)F)cn1)C1=C(O)CC(c2cnc(Cl)c(-c3cncc(F)c3)c2)NC1=O` (centres unmarked) [2-056], at least 50%.
With `C#Cc1ccc(NC(=O)C2=C(O)CC(c3cnc(Cl)c(-c4cccc(C)c4)c3)NC2=O)cc1` (centres unmarked) [2-280], in data set [1], the mortality at 10 µg/cm2 was at least 50%. Further, the mortality at 500 µg/mL in data set [2], in data set [3] and in data set [4] was at least 90% throughout.
For `O=C(Nc1ncc(Cl)cc1F)C1=C(O)CC(c2nc(-c3ccc(F)nc3)no2)NC1=O` (centres unmarked) [3-271], the “efficacy (%)” value in the data set on Trichostrongylus axei was at least 50%.
Still for that read-out and setting: under `O=C(Nc1ccc(F)cn1)C1=C(O)CC(c2nc(-c3cncc(F)c3)no2)NC1=O` (centres unmarked) [3-083] stands at least 50%; under `O=C(Nc1ccc(F)nc1)C1=C(O)CC(c2nc(-c3ccc(F)cc3)no2)NC1=O` (centres unmarked) [3-082], at least 50%.
Same read-out and setting: under `O=C(Nc1ncc(Cl)cc1F)C1=C(O)CC(c2cnc(Cl)c(-c3ccc(F)cc3)c2)NC1=O` (centres unmarked) [2-232] stands at least 50%.
The same measure, in the same setting: under `O=C(Nc1ccc(F)cn1)C1=C(O)CC(c2nc(-c3cc(F)c(F)c(F)c3)no2)NC1=O` (centres unmarked) [3-138] stands at least 50%; under `Cn1ccc(-c2noc(C3CC(O)=C(C(=O)Nc4ccc(F)cn4)C(=O)N3)n2)n1` (centres unmarked) [3-085], at least 50%.
On to `Cc1cc(NC(=O)C2=C(O)CC(c3nc(-c4ccnc(F)c4)no3)NC2=O)on1` (centres unmarked) [3-121], for which the “efficacy (%)” value in the data set on Trichostrongylus axei is at least 50%.
Still for that read-out and setting: under `Cn1nc(Cl)c(-c2noc(C3CC(O)=C(C(=O)Nc4nccs4)C(=O)N3)n2)c1Cl` (centres unmarked) [3-171] stands at least 50%.
Turning to `CC(=O)c1ccc(-c2cc(C3CC(O)=C(C(=O)Nc4ccc(F)cc4)C(=O)N3)ccc2C(F)(F)F)cc1` (centres unmarked) [1-012], the mortality at 10 µg/cm2 in data set [1] was at least 50%. Also, the mortality at 500 µg/mL in data set [2] is at least 90%.
Consider `O=C(Nc1ccc(Cl)nc1)C1=C(O)CC(c2cnc(Cl)c(-c3ccc(F)cc3)c2)NC1=O` (centres unmarked) [2-221], for which the “efficacy (%)” value in the data set with Trichostrongylus axei is given as at least 50%.
Same read-out and setting: under `O=C(Nc1cnc(Cl)c(Cl)c1)C1=C(O)CC(c2cnc(Cl)c(-c3ccc(F)nc3)c2)NC1=O` (centres unmarked) [2-126] stands at least 50%; under `CON=C(C)c1cccc(-c2noc(C3CC(O)=C(C(=O)Nc4ccc(F)cn4)C(=O)N3)n2)c1` (centres unmarked) [3-125], at least 50%.
Take `CON=Cc1cccc(-c2noc(C3CC(O)=C(C(=O)Nc4ccc(F)cn4)C(=O)N3)n2)c1` (centres unmarked) [3-124]: in the data set on Trichostrongylus axei, the “efficacy (%)” value was at least 50%.
Still for that read-out and setting: under `O=C(Nc1ccc(Br)cn1)C1=C(O)CC(c2cnc(C(F)(F)F)c(-c3ccc(F)nc3)c2)NC1=O` (centres unmarked) [2-177] stands at least 50%; under `Cn1ccc(NC(=O)C2=C(O)CC(c3nc(-c4ccc(F)cc4)no3)NC2=O)n1` (centres unmarked) [3-202], at least 50%.
`O=C(Nc1ccc(F)cc1)C1=C(O)CC(c2ccc(C(F)(F)F)c(-c3ccccc3)c2)NC1=O` (centres unmarked) [1-004]: the mortality at 10 µg/cm2 in data set [1] is at least 50%. For the same compound, the mortality at 500 µg/mL in data set [2] and in data set [3] was at least 90% in each case.
In turn, `CSc1cccc(NC(=O)C2=C(O)CC(c3cnc(Cl)c(-c4cccc(C)c4)c3)NC2=O)c1` (centres unmarked) [2-284] had a death rate in data set [2] of at least 90%.
As to `O=C(Nc1cc(F)ccn1)C1=C(O)CC(c2nc(-c3ccc(F)cc3F)no2)NC1=O` (centres unmarked) [3-199], the “efficacy (%)” value in the data set on Trichostrongylus axei was at least 50%.
With `Cc1ccc(NC(=O)C2=C(O)CC(c3nc(-c4ccc(F)cc4)no3)NC2=O)nc1` (centres unmarked) [3-127], the “efficacy (%)” value with Trichostrongylus axei is reported as at least 50%.
In the case of `COc1ccc(-c2cc(C3CC(O)=C(C(=O)Nc4ccc(F)cn4)C(=O)N3)cnc2C(F)(F)F)cc1` (centres unmarked) [2-245], the “efficacy (%)” value in the data set on Trichostrongylus axei is given as at least 50%.
On the same count and under the same terms, under `Cc1ccccc1-c1cc(C2CC(O)=C(C(=O)Nc3ccc(F)cn3)C(=O)N2)cnc1C(F)(F)F` (centres unmarked) [2-248] stands at least 50%; under `Cc1cc(Cl)cnc1NC(=O)C1=C(O)CC(c2cnc(Cl)c(-c3ccc(F)nc3)c2)NC1=O` (centres unmarked) [2-130], at least 50%.
